Data taken from patent publication US6462023B1, “Cytostatic agents” (British Biotech Pharmaceuticals, Ltd., priority 1988, dated 2002).

The compounds below were run on histiocytic lymphoma (U937) (assay: cell proliferation assay ([methyl-3H] thymidine incorporation), U937). Conditions: Homo sapiens, U-937; Table 1; final concentration 6 μM; 72 hours in culture, 3 hours pulse; n=6; read-out: U937: percentage of control 3[H] Thymidine incorporation.
Assay type: cell-based, human
Method: (§1) Two human cell lines namely a histiocytic lymphoma (U937) and a melanoma (RPMI-7951) were seeded into 30 mm^2 tissue culture wells, in the appropriate culture medium supplemented with 10% fetal calf serum at a density of 250 cells/mm^2. Six hours later the test compounds were added in the same culture medium to the cells to give a final concentration of 6 μM. Control wells contained cells supplemented with the same culture medium containing the equivalent amount of drug vehicle, which in this case was DMSO at a final concentration of 0.08%. After 72 hours in culture the cells were pulsed for 3 hours with [methyl-^3[H] Thymidine] (2 μCi/ml) and then harvested onto filter mats and DNA associated radioactivity counted. Results are expressed as percentage of control ^3[H] Thymidine incorporation (n=6±1 stdv).
Further examples were tested in the U937 assay described above at 6 μM and the results, expressed as percentage of control ^3[H] Thymidine incorporation (n=6±1 stdv), are set out in the following Table 2.
as §1, with “A” for “Two”, “line,” for “lines”, “(U937), was” for “(U937) and a melanoma (RPMI-7951) were”, “30MM^2” for “30 mm^2”, “cellS/MM^2.” for “cells/mm^2.”, “were” for “are”

Compound `COC(=O)[C@@H](Cc1ccccc1)NC(=O)[C@@H](CC(C)C)[C@@H](C)C(=O)NO` [Example 4, 3S-(2-Phenyl-1R-methylcarboxy-ethylcarbamoyl)-2R, 5-dimethylhexanohydroxamic acid, reference compound] has an activity at 6 µM of 93%.

Same assay, conditions: Homo sapiens, U-937; Table 2; 6 μM; 72 hours in culture; n=6; read-out: U937: percentage of control 3[H] Thymidine incorporation

Point of comparison: `C=CC[C@H](C(=O)NO)[C@@H](CC(C)C)C(=O)N[C@@H](Cc1ccccc1)C(=O)OC1CCOC1` (stereo partly drawn) [Example 35, 2S-(3S-Hydroxycarbamoyl-2R-isobutyl-hex-5-enoylamino)-3-phenylpropionic acid tetrahydro-furan-3(R, S)-yl ester], activity at 6 µM 14%. Against it:
- CCC[C@H](C(=O)NO)[C@@H](CC(C)C)C(=O)N[C@@H](C(=O)OCCOC)C(C)(C)C [Example 15, 2S-(3S-Hydroxycarbamoyl-2R-isobutyl-hexanoylamino)-3,3-dimethyl-butyric acid 2-methoxy-ethyl ester] — higher, 19%
- C=CC[C@H](C(=O)NO)[C@@H](CC(C)C)C(=O)N[C@@H](Cc1ccccc1)C(=O)OC1CCCC1 [Example 20, 2S-(3S-Hydroxycarbamoyl-2R-isobutyl-hex-5-enoylamino)-3-phenylpropionic acid cyclopentyl ester] — lower, 0%
- CC(C)C[C@H](CC(=O)NO)C(=O)N[C@@H](Cc1ccccc1)C(=O)OC(C)C [Example 7, 2S-(2R-Hydroxycarbamoylmethyl-4-methyl-pentanoylamino)-3-phenyl-propionic acid isopropyl ester] — lower, 0%
- C=CC[C@H](C(=O)NO)[C@@H](CC(C)C)C(=O)N[C@@H](Cc1ccccc1)C(=O)O[C@@H](C)CCC [Example 31, 2S-(3S-Hydroxycarbamoyl-2R-isobutyl-hex-5-enoylamino)-3-phenylpropionic acid 1S-methyl-butyl ester] — lower, 7%
- CO[C@H](C(=O)NO)[C@@H](CC(C)C)C(=O)N[C@@H](Cc1ccccc1)C(=O)OC(C)C [Example 16, 2S-[2R-(S-Hydroxycarbamoyl-methoxy-methyl)-4-methyl-pentanoylamino]-3-phenyl-propionic acid isopropyl ester] — lower, 2%
- CC(C)C[C@@H](C(=O)N[C@@H](Cc1ccccc1)C(=O)OC(C)C)[C@H](O)C(=O)NO [Example 8, 2S-[2R-(S-Hydroxy-hydroxycarbamoyl-methyl)-4-methyl-pentanoylamine]-3-phenyl-propionic acid isopropyl ester] — lower, 1%
- C=CC[C@H](C(=O)NO)[C@@H](CC(C)C)C(=O)N[C@@H](Cc1ccccc1)C(=O)OC(C)(C)C [Example 6, 2S-(3S-Hydroxycarbamoyl-2R-isobutyl-hex-5-enoylamino)-3-phenyilpropionic acid tert-butyl ester] — higher, 18%
- C#CC[C@@H](C(=O)N[C@@H](Cc1ccccc1)C(=O)OC1CCCC1)[C@H](O)C(=O)NO [Example 38, 2S-[2R-(1S-Hydroxy-hydroxycarbamoyl-methyl)-pent-4-ynoylamino]-3-phenylpropionic acid cyclopentyl ester] — higher, 37%
- COCCOC(=O)[C@H](NC(=O)[C@H](CC(C)C)[C@H](C)C(=O)NO)C(C)(C)C [Example 18, 2S-[2R-(1S-Hydroxycarbamoyl-ethyl)-4-methyl-pentanoylamino]-3,3-dimethyl-butyric acid 2-methoxy-ethyl ester] — higher, 54%
- CC(C)C[C@@H](C(=O)N[C@@H](Cc1ccccc1)C(=O)OC1CCCC1)[C@@H](C(=O)NO)C1CCCC1 [Example 37, 2S-[2R-(1S-Cyclopentyl-hydroxycarbamoyl-methyl)-4-methyl-pentanoylamino]-3-phenyl-propionic acid cyclopentyl ester] — lower, 0%
- C=CC[C@H](C(=O)NO)[C@@H](CC(C)C)C(=O)N[C@@H](Cc1ccccc1)C(=O)OC1CCCCC1 [Example 32, 2S-(3S-Hydroxycarbamoyl-2R-isobutyl-hex-5-enoylamino)-3-phenylpropionic acid cyclohexyl ester] — lower, 0%
- C=CC[C@H](C(=O)NO)[C@@H](CC(C)C)C(=O)N[C@@H](CC(C)C)C(=O)OC1CCCC1 [Example 27, 2S-(3S-Hydroxycarbamoyl-2R-isobutyl-hex-5-enoylamino)-4-methyl-pentanoic acid cyclopentyl ester] — lower, 0%
- C=CC[C@H](C(=O)NO)[C@@H](CC(C)C)C(=O)N[C@H](C(=O)OC1CCCC1)c1ccccc1 [Example 41, 2S-(3S-Hydroxycarbamoyl-2R-isobutyl-hex-5-enoylamino)-2-phenylethanoic acid cylcopentyl ester] — lower, 0%
- CC(C)C[C@@H](C(=O)N[C@@H](Cc1ccccc1)C(=O)OC1CCCC1)[C@H](O)C(=O)NO [Example 11, 2S-[2R-(S-Hydroxy-hydroxycarbamoyl-methyl)-4-methyl-pentanoylamino]-3-phenyl-propionic acid cyclopentyl ester] — lower, 0%
- C=CC[C@H](C(=O)NO)[C@@H](CC(C)C)C(=O)N[C@H](C(=O)OC1CCCC1)C(C)(C)C [Example 36, 2S-(3S-Hydroxycarbamoyl-2R-isobutyl-hex-5-enoylamino)-3,3-dimethyl-butyric acid cyclopentyl ester] — higher, 51%
- C=CC[C@H](C(=O)NO)[C@@H](CC(C)C)C(=O)N(C)[C@@H](Cc1ccccc1)C(=O)OC(C)C [Example 25, 2S-{(3S-Hydroxycarbamoyl-2R-isobutyl-hex-5-enoyl)-methyl-amino)-3-phenylpropionic acid isopropyl ester] — higher, 34%
- C=CC[C@H](C(=O)NO)[C@@H](CC(C)C)C(=O)N[C@H](Cc1ccccc1)C(=O)OCCOC [Example 13, 2S-(3S-Hydroxycarbamoyl-2R-isobutyl-hex-5-enoylamino)-3-phenylpropionic acid 2-methoxy-ethyl ester] — lower, 4%
- C=CC[C@H](C(=O)NO)[C@@H](CC(C)C)C(=O)N[C@H](Cc1ccccc1)C(=O)OC(C)C [Example 23, 2R-(3S-Hydroxycarbamoyl-2R-isobutyl-hex-5-enoylamino)-3-phenylpropionic acid isopropyl ester] — higher, 36%
- C=CC[C@H](C(=O)NO)[C@@H](CC(C)C)C(=O)N[C@H](C(=O)OC1CCCC1)C(C)CC (stereo partly drawn) [Example 12, 2S-(3S-Hydroxycarbamoyl-2R-isobutyl-hex-5-enoylamino)-3S-methyl-pentanoic acid cyclopentyl ester] — lower, 10%
- CC(C)C[C@@H](C(=O)N[C@@H](Cc1ccccc1)C(=O)OC(C)C)[C@H](C)C(=O)NO [Example 9, 2S-[2R-(1S-Hydroxycarbamoyl-ethyl)-4-methyl-pentanoylamino]-3-phenyl-propionic acid isopropyl ester] — lower, 8%
- O=C(OC1CCCC1)[C@H](Cc1ccccc1)NC(=O)[C@H](CC#Cc1ccccc1Cl)[C@H](O)C(=O)NO [Example 42, 2S-[5-(2-Chlorophenyl)-2R-(1S-hydroxy-hydroxycarbamoyl-methyl)-pent-4-ynoylamino]-3-phenylpropionic acid cyclopentyl ester] — lower, 0%
- COCCOC(=O)[C@@H](Cc1ccccc1)NC(=O)[C@H](CC(C)C)[C@H](C)C(=O)NO [Example 14, 2S-[2R-(1S-Hydroxycarbamoyl-ethyl)-4-methyl-pentanoylamino]-3-phenyl-propionic acid 2-methoxy-ethyl ester] — higher, 33%
- CCCCCC[C@H](CC(=O)NO)C(=O)N[C@@H](Cc1ccccc1)C(=O)OC(C)C [Example 10, 2S-(2R-Hydroxycarbamoylmethyl-octanoylamino)-3-phenyl-propionic acid isopropyl ester] — lower, 1%
- C=CC[C@H](C(=O)NO)[C@@H](CC(C)C)C(=O)N[C@@H](Cc1ccccc1)C(=O)O[C@H](C)CCC [Example 34, 2S-(3S-Hydroxycarbamoyl-2R-isobutyl-hex-5-enoylamino)-3-phenylpropionic acid 1R-methyl-butyl ester] — lower, 3%
- CCC[C@H](C(=O)NO)[C@@H](CC(C)C)C(=O)N[C@@H](Cc1ccccc1)C(=O)OC(C)C [Example 21, 2S-(3S-Hydroxycarbamoyl-2R-isobutyl-hexanoylamino)-3-phenylpropionic acid isopropyl ester] — lower, 1%
- C=CC[C@H](C(=O)NO)[C@@H](CC(C)C)C(=O)N[C@@H](Cc1cccnc1)C(=O)OC1CCCC1 [Example 39, 2S-(3S-Hydroxycarbamoyl-2R-isobutyl-hex-5-enoylamino)-3-pyridin-3-yl-propionic acid cyclopentyl ester] — higher, 26%
